{
  "source": "patent US11040056B2",
  "about": "“Benzimidazoles that enhance the activity of oligonucleotides” (The University of North Carolina at Chapel Hill, priority 2018, dated 2021)",
  "key": {"[1]": {"assay": "In vivo toxicity parameters (cardiac blood samples)", "protocol": "All animal procedures were conducted in compliance with guidelines of the UNC Laboratory Animal Medicine Department and with federal guidelines. […] (20, 32) EGFP654 mice were administered 35 mg/kg of SSO623 or mismatched oligonucleotide in buffer by intraperitoneal injection on two consecutive days. One day later, mice received either 5 mg/kg of UNC2383 in a 1:1 DMSO/PEG400 solution or only the diluent, via intraperitoneal injection. […] After 24 h, the second cohort was euthanized and tissue and cardiac blood samples were obtained. […] (31) Blood samples were analyzed by the UNC Animal Clinical Chemistry Core facility."}, "[2]": {"assay": "Alamar Blue cytotoxicity assay", "assay_type": "cell-based", "conditions": "human, HeLa Luc705 cells; Alamar Blue cytotoxicity; read-out: TC50", "procedure": "(§1) FIG. 1B-1E. Effects with SSOs. FIG. 1B Structure of UNC2383. FIG. 1C Compound 2383 enhances SSO effects. Cells were incubated in 24-well plates with 100 nM SSO623 or its mismatched control (MM) for 16 h in DMEM+10% FBS, rinsed and then treated with various concentrations of 2383 for 2 h. The cells were then rinsed and incubation continued for an additional 4 h in DMEM+10% FBS. Cells were rinsed twice in PBS and luciferase activity (RLU) and cell protein determined. The larger round symbol indicates the MM oligonucleotide. Means+/−SE. N=3. FIG. 1D Kinetics of 2383 action. Cells were preloaded with 100 nM SSO623 and then exposed to 2383 for various periods after which the compound was removed. The cells were further incubated and then luciferase and protein determined. The total time of incubation in each case was 6 h. FIG. 1E Cytotoxicity of 2383. HeLa Luc705 or NIH-3T3-MDR cells were exposed to 2383 as in (FIG. 1C) then incubated for 24 h in DMEM plus 10% FBS and tested using the Alamar Blue cytotoxicity assay. Means+/−SE. N=3.\n(§2) FIG. 3. Effect and Cytotoxicity of Analogs. The effect of selected UNC2383 analogs on luciferase induction by SSO623 was measured as described in Methods and in the legend of FIG. 1B-1E. Cytotoxicity was measured using the Alamar Blue method as in FIG. 1E. MM10 is the effect of 10 uM compound in the presence of a mismatched oligonucleotide. Means and SE. N=3.\n(§3) SSO-mediated luciferase induction assays were conducted as previously described. (18) In short, HeLaLuc705 cells in 24 well culture plates were preincubated with SSO623 followed by brief treatment with the small molecule; at intervals thereafter, luciferase activity and protein content were determined. ASO mediated inhibition of MDR1 gene expression utilized an Alexa 488 labeled anti-P-glycoprotein antibody and flow cytometry to measure Pgp expression as described. (20) The anti-MDR1 sequence is 5′-CCATCccgacctcgcGCTCC-3′(SEQ ID NO: 5) (all phosphorothiopate with 2-O-Me residues in capitals). Cytotoxicity of 2383 was monitored using the Alamar Blue assay. (30)"}, "HeLa Luc705 cells": {"test_system": "HeLa Luc705 cells", "assay": "Alamar Blue cytotoxicity assay", "assay_type": "cell-based", "procedure": "as §1, §2, §3"}, "[3]": {"test_system": "lysosomes of HeLa Luc 705 cells", "assay": "Lysotracker Red accumulation assay", "assay_type": "cell-based", "conditions": "2 μM", "procedure": "FIG. 9A-9D. Effects on lysosomes. FIG. 9A: Lysotracker uptake. Accumulation of Lysotracker Red in HeLa Luc 705 cells was measured after a 2 h exposure of cells to the indicated concentrations of various analogs. The lysosomotropic compound chloroquine was included as a positive control. Means of triplicate determinations are shown. The color-coded numbers refer to the fold increase in luciferase induction attained by the concentration of analog associated with the adjacent symbol on the graph. The numbers are taken from the data of FIG. 1C for UNC2383 and FIG. 4 for UNC4267, UNC4258, and UNC4428. FIG. 9B: LT50 vs TC50. […] Nonlinear regression was calculated using Prism software. The R^2 value for the plot is 0.91. FIG. 9C: 2383 vs chloroquine; luciferase induction. HeLa Luc705 cells were exposed to SSO623 and then treated with various concentrations of UNC2383 or chloroquine for 2 h and then tested for luciferase induction following the methods described in FIG. 1B-FIG. 1E. […]\nThe integrity of lysosomes was evaluated using the fluorescent probe Lysotracker Red (Thermo Fisher). […] Cells were thoroughly rinsed in PBS, lysed in 0.2% TX 100, and centrifuged briefly at 4000 rpm, and 100 uL of the supernate was distributed to black 96 well plates for analysis of fluorescence using a FLUOstar Omega 96 well microplate reader."}, "[4]": {"conditions": "24 h after administration, means +/− SE, N = 4"}},
  "data": [
    {"smiles": "O=C(Nc1nc2ccccc2n1CCN1CCCC1)c1cc2cc(Cl)ccc2o1", "note": "[UNC2383]", "values": [
      {"measurement": "toxicity in vivo", "setting": "[1]; 5 mg/kg i.p.", "value": "limited toxicity"},
      {"measurement": "ALT", "setting": "[1]; [4]", "value": "106 +/− 32 U/L"},
      {"measurement": "AST", "setting": "[1]; [4]", "value": "76 +/− 15 U/L"},
      {"measurement": "BUN", "setting": "[1]; [4]", "value": "20 ± 4", "unit": "mg/dL"},
      {"measurement": "Hb", "setting": "[1]; [4]", "value": "11.8 ± 0.4", "unit": "g/dL"},
      {"measurement": "Platelets", "setting": "[1]; [4]", "value": "711 +/− 85 × 10^3/ul"},
      {"measurement": "CC50 at 2 h", "setting": "[2]", "value": 15, "unit": "µM"},
      {"measurement": "window between effective and toxic concentrations compared to UNC10217938", "setting": "HeLa Luc705 cells", "value": "narrower"},
      {"measurement": "concentrations showing little toxicity", "setting": "HeLa Luc705 cells; 2 h exposure, then 24 h, FIG. 1E", "value": "≤ 10", "unit": "µM"},
      {"measurement": "TC50/EC50", "setting": "HeLa Luc705 cells; ratio of cytotoxicity TC50 to luciferase induction EC50", "value": 7.5},
      {"measurement": "effect on lysotracker accumulation", "setting": "[3]", "value": "little effect"}
    ]}
  ]
}
